# Laboratory results taken from patent publication US9295624B2, “Amide derivative and whitening agent” (AJINOMOTO CO. INC., priority 2009, dated 2016).
# Where two headings read alike, the source gives them in different places.
# Legend:
# B16 melanom [1] = test: Melanin production suppression test; type: cell-based; details: B16 melanoma cells, 3 days incubation, absorbance at 450 nm of medium, control = 100%, read-out: 50% melanin production-suppressive concentration IC50
# Protocol: B16 melanom (purchased from Dainippon Sumitomo Pharma Co., Ltd.) was cultured in DMEM (Dulbecco's Modified Eagle Medium, high glucose, containing 10% serum). After confluent, the cells were trypsinized and seeded in a 96-well plate. On the following day, after adhesion of the cells to the plate, the medium was replaced with DMEM containing each evaluation sample (control (no sample addition), sample of each Production Example) at a given evaluation concentration (diluted from […] according to sample), and the cells were incubated for 3 days. The 96-well plate was shaken in a plateshaker for 5 minutes, the absorbance at 450 nm was measured by a microplatereader (Benchmark microplatereader, manufactured by BIORAD), and the amount of melanin in the medium in each well was compared. The absorbance at 3 days after addition of a given concentration of each sample was shown in relative percentage based on the measurement value (absorbance) of control (no sample addition) as 100%. As Comparative Example, a similar test was performed using kojic acid (KoA), 4-hexylresorcinol, CS (N-(p-coumaroyl)serotonin or N-[2-(5-hydroxy-1H-indol-3-yl)ethyl]-3-(4-hydroxyphenyl)-2-propenamide) and FS (N-feruloylcoumaroylserotonin or N-[2-(5-hydroxy-1H-indol-3-yl)ethyl]-3-(4-hydroxy-3-methoxyphenyl-2-propenamide). The results are shown in FIGS. 1 to 5. The concentration necessary for suppressing production of melanin in each sample by 50%, based on the amount of melanin in the control as 100%, was calculated as 50% melanin production-suppressive concentration IC50 (μM). The results are shown in Table 2.
# Kojic acid (KoA) used was purchased from Sigma-Aldrich Japan K.K., 4-n-hexylresorcinol used was purchased from TOKYO CHEMICAL INDUSTRY CO., LTD., and CS and FS used were synthesized by Ajinomoto Co., Inc.
# B16 melanom [2] = test: Cytotoxicity test (neutral red assay); type: cell-based; details: neutral red assay after melanin test, absorbance at 540 nm
# Protocol: After measurement of the absorbance in the melanin production suppression test of Experimental Example 1, the evaluation sample solution was removed from the plate, and each well was rinsed with DMEM (200 μl, high glucose, containing 10% serum). A medium containing NR (neutral red) was added to each well at 200 μl/well, and the plate was left standing for 2 hours at 37° C., 5% CO2 under a saturated vapor. The medium was removed, and a washing fixative solution (mixture of equal amounts of 2 wt % calcium chloride solution and 2 wt % formalin solution) was added at 200 μl/well. After 1 minute, the washing fixative solution was removed. An NR extract (acetic acid-ethanol, 200 μl/well) was added, and the mixture was shaken in a plateshaker for 15 minutes. NR uptake by viable cells was examined by measuring the absorbance of the NR extract at 540 nm by a microplatereader (Benchmark microplatereader, manufactured by BIORAD). The cytotoxicity of each sample was calculated as a relative percentage of the absorbance of NR extract of the cells added with a given concentration of each sample to the measurement value (absorbance) of a control NR extract (no sample) as 100%.
Structure (SMILES),"IC50 (B16 melanom [1]; Mus musculus, 72 h)",other results
"CCCCCCc1ccc(O)cc1O [4-hexylresorcinol, reference compound]",23.5 µM,
"O=C(C=Cc1ccc(O)cc1)NCCc1c[nH]c2ccc(O)cc12 [CS, N-[2-(5-hydroxy-1H-indol-3-yl)ethyl]-3-(4-hydroxyphenyl)-2-propenamide, reference compound]",28.5 µM,
"O=C(/C=C/c1ccc(O)cc1O)NCCc1c[nH]c2ccc(O)cc12 [Example 4, N-[2-(5-hydroxy-1H-indol-3-yl)ethyl]-3-(2,4-dihydroxyphenyl)-2-propenamide]",10.7 µM,
O=C(/C=C/c1ccc(O)cc1)NCCc1c[nH]c2ccccc12 [Example 13],21.5 µM,
"Cc1cc(/C=C/C(=O)NCCc2c[nH]c3ccc(O)cc23)ccc1O [Example 17, N-[2-(5-hydroxy-1H-indol-3-yl)ethyl]-3-(3-methyl-4-hydroxyphenyl)-2-propenamide]",14.6 µM,
COc1ccc(CCNC(=O)/C=C/c2ccc(O)cc2)cc1 [Example 24],33.3 µM,
O=C(/C=C/c1ccc(O)cc1O)NCCc1c[nH]c2ccccc12 [Example 30],17.1 µM,
O=C(NCCc1c[nH]c2ccc(O)cc12)c1cccc(O)c1O [Example 32],,cytotoxicity (NR uptake by viable cells) (B16 melanom [2]): showed cytotoxicity
O=C(NCCc1c[nH]c2ccc(O)cc12)c1ccc(O)cc1O [Example 33],,cytotoxicity (NR uptake by viable cells) (B16 melanom [2]): showed cytotoxicity
O=C(NCCc1c[nH]c2ccc(O)cc12)c1cc(O)cc(O)c1 [Example 36],22.4 µM,
"COc1cc(C=CC(=O)NCCc2c[nH]c3ccc(O)cc23)ccc1O [FS, reference compound]",,IC50 (B16 melanom [1]): 42.4 µM
"O=C(NCCc1c[nH]c2ccc(O)cc12)c1ccc(O)c(O)c1 [Reference Example 2, reference compound]",1.9 µM,
"O=c1cc(CO)occ1O [kojic acid, reference compound]",315 µM,
